“Also recorded” adds a separate entry of the source. Like-named read-outs stand apart in the source and are kept apart here. Bounds are passed on as bounds.

Here are results for 8 compounds from patent US5525329A, “Inhibition of phosphodiesterase in olfactory mucosa” (priority 1995, dated 1996).

For series [1], the system named is phosphodiesterase, olfactory mucosa. Kind of series: PDE activity in homogenates of olfactory mucosa (turbinates). The class given is biochemical, rat. As to conditions: for inhibition of cAMP hydrolysis / inhibition of cGMP hydrolysis / reduction of PDE activity: 10 μM drug; for inhibition of cAMP hydrolysis: 1 μM cAMP, no added Ca^2+. As to the method:
(§1) Assays were performed with 100 μM Ca^2+ (hatched bars) or with 100 μM EGTA (solid bars).
(§2) Enzymol. […] Tissue was warmed to 37° C. and 100 μl aliquots containing 1-2 […] protein added to initiate the assay which was conducted for 20 minutes at 37° C. […] For experiments at 100 μM free Ca^2+, the reaction mix included 0.2 mM CaCl2 and 50 nM calmodulin (Sigma) where appropriate. Low Ca^2+ conditions were achieved by addition of 2.0 mM EGTA. Ca^2+ levels were measured against standards using a conductivity meter and Ca^2+ electrode (Biomedical Instrumentation Group, Philadelphia, Pa.). Following incubation, reactions were stopped by boiling for 1.5 minutes and cooling on ice, whereupon 100 μl aliquots of 5'-nucleotidase (10 units/ml in 0.1M Tris pH 8.1) were added and samples incubated for 30 minutes at 37° C. Incubation mixtures were applied to QAE-Sephadex columns pre-equilibrated with 30 mM ammonium formate, with flow through and eluate from two 1 ml washes collected in plastic scintillation vials.
Subcellular fractions were obtained as described below. Rats were anesthetized with carbon dioxide, decapitated and tissue dissected. Nasal turbinates were dissected intact and consisted of the entire olfactory mucosa, including endothelial tissue, olfactory epithelium, and overlying mucous. […] For fractionation, tissue was first centrifuged at 500×g for 5 minutes in a Sorvall RC 2B superspeed refrigerated centrifuge (DuPont, Wilmington, Del.). The crude particulate (P1) pellet was discarded and the supernatant (S1) centrifuged 20 minutes at 28,000×g. The resultant pellet (P2) was washed in BHB, centrifuged and resuspended in 5 ml BHB, and designated the membrane fraction. The supernatant (S2) was centrifuged 50 minutes at 230,000×g in Beckman L8-M ultracentrifuge (Fullerton, Calif.). The pellet (P3) was washed in BHB, recentrifuged in an ultracentrifuge, and resuspended in 2 ml BHB as the microsomal fraction. The supernatant (S3) was saved as the soluble fraction and visually inspected for absence of cloudiness or lipid droplets. In all cases, protein was assayed by the Bradford method using Coomassie Protein Assay Reagent (Pierce, Rockford, Ill.) and BSA as standard.

The target of series [2] is T1, phosphodiesterase, olfactory cilia (Rattus norvegicus, UniProt Q63421).
T1 construct: Tissue was prepared either as cilia, using the method of Sklar et al., (1986); from tissue; host or cells: olfactory cilia preparation
Kind of series: PDE activity in olfactory cilia. The class given is biochemical. As to the method: as §1
(§3) Activity is graphed as a function of total cyclic nucleotides present using olfactory cilia, or mucosa with 1 μM cGMP.
(§4) FIG 4B is a graph of activity, 1 μM cGMP used as substrate: 100 μM EGTA (open circles); 100 μM Ca^2+ (filled circles); 100 μM Ca^2+ in the presence of 200 μM W-7 (filled squares).
as §2

Series [3] concerns high affinity cAMP-selective form of PDE. To be noted: reported in literature, cited from earlier work.
In series [4] the test system is phosphodiesterase, olfactory cilia. Kind of series: PDE activity in olfactory cilia. The class given is biochemical, rat. As to the method:
as §1, §3, §4, §2

Series [5] has as its target T1, phosphodiesterase, olfactory cilia. Kind of series: PDE activity in olfactory cilia. The class given is biochemical. The source holds these as a separate data set.
In series [6] the test system is cGMP-inhibited PDE. As to conditions: reported in literature; cited from earlier work.
The mark [7] stands for this setting: olfactory mucosa, 1 μM cGMP, 100 μM EGTA.
Where [8] appears, read: 10 μM drug, presence or absence of Ca^2+.

T1 sequence (Q63421 whole entry): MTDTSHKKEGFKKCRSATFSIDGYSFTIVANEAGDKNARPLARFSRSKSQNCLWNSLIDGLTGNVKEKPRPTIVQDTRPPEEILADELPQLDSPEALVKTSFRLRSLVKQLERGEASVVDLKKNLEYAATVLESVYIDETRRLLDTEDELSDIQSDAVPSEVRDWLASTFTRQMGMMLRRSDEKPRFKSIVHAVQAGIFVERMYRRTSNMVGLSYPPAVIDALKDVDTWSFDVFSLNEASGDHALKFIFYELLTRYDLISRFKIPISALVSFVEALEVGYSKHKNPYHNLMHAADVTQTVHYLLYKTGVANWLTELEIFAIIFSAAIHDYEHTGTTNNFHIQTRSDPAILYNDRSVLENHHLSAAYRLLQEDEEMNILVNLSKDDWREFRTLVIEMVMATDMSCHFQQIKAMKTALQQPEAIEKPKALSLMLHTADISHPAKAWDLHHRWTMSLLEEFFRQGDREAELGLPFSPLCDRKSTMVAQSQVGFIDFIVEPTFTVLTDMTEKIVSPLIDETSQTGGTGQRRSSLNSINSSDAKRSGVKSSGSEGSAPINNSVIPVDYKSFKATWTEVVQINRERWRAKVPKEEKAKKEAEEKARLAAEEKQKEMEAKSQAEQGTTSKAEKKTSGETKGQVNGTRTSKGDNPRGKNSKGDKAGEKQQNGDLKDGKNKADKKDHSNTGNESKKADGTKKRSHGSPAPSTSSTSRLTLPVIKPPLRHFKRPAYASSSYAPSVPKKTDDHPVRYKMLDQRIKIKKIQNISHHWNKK

Turning to `COc1ccc(C2CNC(=O)C2)cc1OC1CCCC1` (stereo not drawn) [rolipram], the “inhibition of cAMP hydrolysis” value in series [1] (olfactory mucosa, 100 μM EGTA) is recorded as 49%. In addition, the “inhibition of cGMP hydrolysis” value in series [1] (setting [7]) was “Neither 10 μM rolipram nor 10 μM Ro20-1724 inhibit cGMP hydrolysis”. Further, the “inhibition of PDE in cilia” value in series [2] (setting [8]) is given as “neither rolipram (10 μM) nor Ro20-1724 (10 μM) inhibit PDE”. Moreover, the “selective inhibition of the high affinity cAMP-selective form of PDE” value (shortened to “selective inhibition”) in series [3] was “selectively inhibited; also recorded: selectively inhibit the high affinity cAMP-selective form of PDE”.

Take `NCCCCCCNS(=O)(=O)c1cccc2c(Cl)cccc12` [W-7]: the “reduction of stimulation by calmodulin” value in series [4] (cilia, 100 μM W-7 (cAMP) or 200 μM W-7 (cGMP), 100 μM Ca^2+) is recorded as “substantially reduces stimulation by calmodulin”.

The inhibition is the drop in the measured response relative to a control, in per cent. Turning to `CCCCn1c(=O)c2c(ncn2CC(C)=O)n(CCCC)c1=O` [denbufylline], in series [1] (olfactory mucosa, 100 μM EGTA), the “inhibition of cAMP hydrolysis” value is 64%. The “inhibition of cGMP hydrolysis” value in series [1] (setting [7]) is on record as “about 20%”. Further, the inhibition at 10 µM was in the range of 15 to 20% in series [2] (10 μM drug, 1 μM cGMP, presence or absence of Ca^2+, read-out: inhibition of ciliary cGMP PDE) and 15 to 20% in series [5] (read-out: inhibition of ciliary cAMP PDE). In series [3], the “selective inhibition” value is on record as “selectively inhibit the high affinity cAMP-selective form of PDE”.

In the case of `CCCCOc1cc(CC2CNC(=O)N2)ccc1OC` (stereo not drawn) [Ro20-1724], in series [1] (olfactory PDE, presence of calcium), the “inhibition of olfactory PDE in the presence of calcium” value was “about 15%”. The “inhibition of cAMP hydrolysis” value in series [1] (olfactory mucosa, 100 μM EGTA) worked out at 66%. The “inhibition of cGMP hydrolysis” value in series [1] (setting [7]) is “Neither 10 μM rolipram nor 10 μM Ro20-1724 inhibit cGMP hydrolysis”. The “inhibition of PDE in cilia” value in series [2] (setting [8]) was “neither rolipram (10 μM) nor Ro20-1724 (10 μM) inhibit PDE”. The “selective inhibition” value in series [3] is listed as “selectively inhibit the high affinity cAMP-selective form of PDE”; in series [3] (listed as Ro 20-1724), “selective inhibitor of calcium/calmodulin-independent, high affinity PDE”.

For the compound calmodulin, in series [1] (mucosal homogenates, 1 μM cAMP or cGMP), the “effect of calmodulin on stimulation of enzyme activity by Ca^2+” value was “further enhances the stimulation of enzyme activity by Ca^2+”. In addition, the EC50 in series [2] (cilia, 1 μM cGMP, read-out: half maximal stimulation of PDE activity by calmodulin) worked out at 10 nM; in series [5] (cilia, 1 μM cAMP, read-out: half maximal stimulation of PDE activity by calmodulin), 10 nM.

As for `Cc1[nH]c(=O)c(C#N)cc1-c1ccncc1` [milrinone], the figures for the “reduction of PDE activity” value in series [1] (100 μM Ca^2+) and in series [1] (100 μM EGTA) were “about 15%” and “about 30%”, respectively. Further, the inhibition at 10 µM in series [2] (read-out: inhibition of PDE in cilia) was less than 10%. The “selectivity for cGMP-inhibited PDE” value in series [6] is “selective for cGMP-inhibited PDE”.

`Nc1nc2c(ncn2[C@@H]2O[C@@H]3COP(=O)(O)O[C@H]3[C@H]2O)c(=O)[nH]1` [cGMP]: the “maximal enhancement of cAMP hydrolysis by cGMP” value in series [1] (olfactory mucosa, 1 μM cGMP, 10 μM cAMP, 100 μM EGTA) is on record as 20-30%; in series [4] (cilia, 1 μM cGMP, 10 μM cAMP, 100 μM EGTA), 20-30%. Further, in series [4] (cilia and olfactory mucosa, Ca^2+ and calmodulin added), the “effect of cGMP on cAMP hydrolysis when Ca^2+ and calmodulin are added” value is “diminishes markedly”.

For `CC1CC(=O)NN=C1c1ccc(-n2ccnc2)cc1` (stereo not drawn) [CI 930], the “reduction of PDE activity” value in series [1] (100 μM Ca^2+) is listed as “about 15%”; in series [1] (100 μM EGTA) it was “about 30%”. Further, the inhibition at 10 µM in series [2] (10 μM drug, regardless of assay conditions, read-out: inhibition of PDE in cilia) was less than 10%. Besides, in series [6], the “selectivity for cGMP-inhibited PDE” value is on record as “selective for cGMP-inhibited PDE”.
